According to paper PMC6979384, “Characterization of the plant homeodomain (PHD) reader family for their histone tail interactions” (Epigenetics & Chromatin, 2020):
Where no end group is shown, it is not given here. [ ]: non-standard residue; d: D form. pS = N[C@@H](COP(=O)(O)O)C(=O)O

Experiments:
Assay in all cases: Histone peptide microarray
Assay type in all cases: binding, human
AIRE (PP) = details: AIRE (PP); for Array Heatmap value (peptide array signal): sheet "Array Heatmap", each array performed twice, total n = 4
From the text: (§1) To more comprehensively define the histone interactions of the 31 PHD readers identified from the domain microarray analyses, we probed each on an alternate microarray platform containing a library of 293 synthetic histone peptides with single or combinatorial PTMs (Additional file 2: Figure S4 and Additional file 3: Table S2).
(§2) The 31 GST-tagged PHD readers identified in the PHD finger domain array were expressed and purified as previously. Histone peptide arrays and peptide pulldown assays were conducted as recently described (specifically, the optimized protocol from Petell et al. for the former).
(§3) Supplementary file 13072_2020_328_MOESM3_ESM.xlsx: Additional file 3: Table S2. […] Excel Tab Peptide List is a compiled list of the entire 293 histone peptide library with amino acid sequence ranges. […] Each number corresponds to the peptide number designated in Peptide List. Excel Tab Average Signals is a compiled set of binding data: chromatin reader at 0.5 μM vs. entire 293 peptide library. Data is presented as the average and standard deviation of 4 replicates. The average signals are colored to indicate signal intensity with green being strong and white being weak/low. […] Key: red= stronger relative binding; blue = weaker relative binding. Excel Tab Array info summary is a table summarizing the domains, sequence coverage, array signal range, and noise for each of the GST-tagged readers assayed on the peptide microarrays.

BAZ2B = details: BAZ2B; for Array Heatmap value (peptide array signal): sheet "Array Heatmap", each array performed twice, total n = 4
From the text: as §1, §2, §3

BPTF (PB) = details: BPTF (PB); for Array Heatmap value (peptide array signal): sheet "Array Heatmap", each array performed twice, total n = 4
From the text: as §1, §2, §3

CHD4 (PPCC) = details: CHD4 (PPCC); for Array Heatmap value (peptide array signal): sheet "Array Heatmap", each array performed twice, total n = 4
From the text: as §1, §2, §3

CHD5 (PCC) = details: CHD5 (PCC); for Array Heatmap value (peptide array signal): sheet "Array Heatmap", each array performed twice, total n = 4
From the text: as §1, §2, §3

CHD5 (PPCC) = details: CHD5 (PPCC); for Array Heatmap value (peptide array signal): sheet "Array Heatmap", each array performed twice, total n = 4
From the text: as §1, §2, §3

DIDO1 = details: for Array Heatmap value (peptide array signal): DIDO1, sheet "Array Heatmap", each array performed twice, total n = 4
From the text: as §1, §2, §3

DPF2 (PPC2W2) = details: DPF2 (PPC2W2); for Array Heatmap value (peptide array signal): sheet "Array Heatmap", each array performed twice, total n = 4
From the text: as §1, §2, §3

ING1 = details: for Array Heatmap value (peptide array signal): ING1, sheet "Array Heatmap", each array performed twice, total n = 4
From the text: as §1, §2, §3

ING2 = details: for Array Heatmap value (peptide array signal): ING2, sheet "Array Heatmap", each array performed twice, total n = 4
From the text: as §1, §2, §3

ING3 = details: for Array Heatmap value (peptide array signal): ING3, sheet "Array Heatmap", each array performed twice, total n = 4
From the text: as §1, §2, §3

ING4 = details: for Array Heatmap value (peptide array signal): ING4, sheet "Array Heatmap", each array performed twice, total n = 4
From the text: as §1, §2, §3

ING5 = details: for Array Heatmap value (peptide array signal): ING5, sheet "Array Heatmap", each array performed twice, total n = 4
From the text: as §1, §2, §3

KDM4C (TTP) = details: KDM4C (TTP); for Array Heatmap value (peptide array signal): sheet "Array Heatmap", each array performed twice, total n = 4
From the text: as §1, §2, §3

KDM5A (1) = details: KDM5A (1); for Array Heatmap value (peptide array signal): sheet "Array Heatmap", each array performed twice, total n = 4
From the text: as §1, §2, §3

KDM5A (3) = details: KDM5A (3); for Array Heatmap value (peptide array signal): sheet "Array Heatmap", each array performed twice, total n = 4
From the text: as §1, §2, §3

KDM5B (1) = details: KDM5B (1); for Array Heatmap value (peptide array signal): sheet "Array Heatmap", each array performed twice, total n = 4
From the text: as §1, §2, §3

KDM5B (3) = details: KDM5B (3); for Array Heatmap value (peptide array signal): sheet "Array Heatmap", each array performed twice, total n = 4
From the text: as §1, §2, §3

KDM7A = details: KDM7A; for Array Heatmap value (peptide array signal): sheet "Array Heatmap", each array performed twice, total n = 4
From the text: as §1, §2, §3

MLL5 = details: for Array Heatmap value (peptide array signal): MLL5, sheet "Array Heatmap", each array performed twice, total n = 4
From the text: as §1, §2, §3

MORC3 (CW) = details: MORC3 (CW); for Array Heatmap value (peptide array signal): sheet "Array Heatmap", each array performed twice, total n = 4
From the text: as §1, §2, §3

PHF13 = details: for Array Heatmap value (peptide array signal): PHF13, sheet "Array Heatmap", each array performed twice, total n = 4
From the text: as §1, §2, §3

PHF21A = details: PHF21A; for Array Heatmap value (peptide array signal): sheet "Array Heatmap", each array performed twice, total n = 4
From the text: as §1, §2, §3

PHF23 = details: for Array Heatmap value (peptide array signal): PHF23, sheet "Array Heatmap", each array performed twice, total n = 4
From the text: as §1, §2, §3

PHF2 = details: for Array Heatmap value (peptide array signal): PHF2, sheet "Array Heatmap", each array performed twice, total n = 4
From the text: as §1, §2, §3

PHF8 = details: for Array Heatmap value (peptide array signal): PHF8, sheet "Array Heatmap", each array performed twice, total n = 4
From the text: as §1, §2, §3

PHRF1 (RP) = details: PHRF1 (RP); for Array Heatmap value (peptide array signal): sheet "Array Heatmap", each array performed twice, total n = 4
From the text: as §1, §2, §3

RAG2 = details: for Array Heatmap value (peptide array signal): RAG2, sheet "Array Heatmap", each array performed twice, total n = 4
From the text: as §1, §2, §3

SP140L = details: SP140L; for Array Heatmap value (peptide array signal): sheet "Array Heatmap", each array performed twice, total n = 4
From the text: as §1, §2, §3

TAF3 = details: for Array Heatmap value (peptide array signal): TAF3, sheet "Array Heatmap", each array performed twice, total n = 4
From the text: as §1, §2, §3

TRIM66 (PB) = details: TRIM66 (PB); for Array Heatmap value (peptide array signal): sheet "Array Heatmap", each array performed twice, total n = 4
From the text: as §1, §2, §3

[1] = GST-tagged, arrays performed twice, n of 4

H2AX (S139p): H2AX 132-142 (GKKATQA[pS]QEY; UniProt P16104 133-143, looked up, fragment)
Array Heatmap value (peptide array binding signal) (AIRE (PP); [1]): 0.5219
Array Heatmap value (peptide array binding signal) (BAZ2B; [1]): 0.5073
Array Heatmap value (peptide array binding signal) (BPTF (PB); [1]): 0.3554
Array Heatmap value (peptide array binding signal) (CHD4 (PPCC); [1]): 0.5526
Array Heatmap value (peptide array binding signal) (CHD5 (PCC); [1]): 0.7872
Array Heatmap value (peptide array binding signal) (CHD5 (PPCC); [1]): 0.5731
Array Heatmap value (peptide array binding signal) (DIDO1; DIDO1, GST-tagged, arrays performed twice, n of 4): 0.6489
Array Heatmap value (peptide array binding signal) (DPF2 (PPC2W2); [1]): 0.653
Array Heatmap value (peptide array binding signal) (ING1; ING1, GST-tagged, arrays performed twice, n of 4): 0.495
Array Heatmap value (peptide array binding signal) (ING2; ING2, GST-tagged, arrays performed twice, n of 4): 0.5973
Array Heatmap value (peptide array binding signal) (ING3; ING3, GST-tagged, arrays performed twice, n of 4): 0.4704
Array Heatmap value (peptide array binding signal) (ING4; ING4, GST-tagged, arrays performed twice, n of 4): 0.4783
Array Heatmap value (peptide array binding signal) (ING5; ING5, GST-tagged, arrays performed twice, n of 4): 0.3847
Array Heatmap value (peptide array binding signal) (KDM4C (TTP); [1]): 0.5256
Array Heatmap value (peptide array binding signal) (KDM5A (1); [1]): 0.5265
Array Heatmap value (peptide array binding signal) (KDM5A (3); [1]): 0.4478
Array Heatmap value (peptide array binding signal) (KDM5B (1); [1]): 0.697
Array Heatmap value (peptide array binding signal) (KDM5B (3); [1]): 0.5358
Array Heatmap value (peptide array binding signal) (KDM7A; [1]): 0.4369
Array Heatmap value (peptide array binding signal) (MLL5; MLL5, GST-tagged, arrays performed twice, n of 4): 0.5137
Array Heatmap value (peptide array binding signal) (MORC3 (CW); [1]): 0.3885
Array Heatmap value (peptide array binding signal) (PHF13; PHF13, GST-tagged, arrays performed twice, n of 4): 0.6185
Array Heatmap value (peptide array binding signal) (PHF21A; [1]): 0.4613
Array Heatmap value (peptide array binding signal) (PHF23; PHF23, GST-tagged, arrays performed twice, n of 4): 0.5395
Array Heatmap value (peptide array binding signal) (PHF2; PHF2, GST-tagged, arrays performed twice, n of 4): 0.4467
Array Heatmap value (peptide array binding signal) (PHF8; PHF8, GST-tagged, arrays performed twice, n of 4): 0.3729
Array Heatmap value (peptide array binding signal) (PHRF1 (RP); [1]): 0.411
Array Heatmap value (peptide array binding signal) (RAG2; RAG2, GST-tagged, arrays performed twice, n of 4): 0.2586
Array Heatmap value (peptide array binding signal) (SP140L; [1]): 0.363
Array Heatmap value (peptide array binding signal) (TAF3; TAF3, GST-tagged, arrays performed twice, n of 4): 0.2793
Array Heatmap value (peptide array binding signal) (TRIM66 (PB); [1]): 0.5363

H2BK5me1: H2B 1-24 [Peptide H2BK5me1]
Array Heatmap value (peptide array signal) (AIRE (PP)): 0.3816
Array Heatmap value (peptide array signal) (BAZ2B): 0.4388
Array Heatmap value (peptide array signal) (BPTF (PB)): 0.3333
Array Heatmap value (peptide array signal) (CHD4 (PPCC)): 0.5519
Array Heatmap value (peptide array signal) (CHD5 (PCC)): 0.7328
Array Heatmap value (peptide array signal) (CHD5 (PPCC)): 0.5218
Array Heatmap value (peptide array signal) (DIDO1): 0.7058
Array Heatmap value (peptide array signal) (DPF2 (PPC2W2)): 0.6733
Array Heatmap value (peptide array signal) (ING1): 0.5552
Array Heatmap value (peptide array signal) (ING2): 0.6238
Array Heatmap value (peptide array signal) (ING3): 0.4514
Array Heatmap value (peptide array signal) (ING4): 0.4312
Array Heatmap value (peptide array signal) (ING5): 0.3396
Array Heatmap value (peptide array signal) (KDM4C (TTP)): 0.4441
Array Heatmap value (peptide array signal) (KDM5A (1)): 0.4431
Array Heatmap value (peptide array signal) (KDM5A (3)): 0.4387
Array Heatmap value (peptide array signal) (KDM5B (1)): 0.6308
Array Heatmap value (peptide array signal) (KDM5B (3)): 0.4454
Array Heatmap value (peptide array signal) (KDM7A): 0.316
Array Heatmap value (peptide array signal) (MLL5): 0.5838
Array Heatmap value (peptide array signal) (MORC3 (CW)): 0.347
Array Heatmap value (peptide array signal) (PHF13): 0.5791
Array Heatmap value (peptide array signal) (PHF21A): 0.4511
Array Heatmap value (peptide array signal) (PHF23): 0.5121
Array Heatmap value (peptide array signal) (PHF2): 0.5195
Array Heatmap value (peptide array signal) (PHF8): 0.341
Array Heatmap value (peptide array signal) (PHRF1 (RP)): 0.4244
Array Heatmap value (peptide array signal) (RAG2): 0.242
Array Heatmap value (peptide array signal) (SP140L): 0.3691
Array Heatmap value (peptide array signal) (TAF3): 0.2612
Array Heatmap value (peptide array signal) (TRIM66 (PB)): 0.6209

H2BK5me3: H2B 1-24 [Peptide H2BK5me3]
Array Heatmap value (peptide array signal) (AIRE (PP)): 0.3902
Array Heatmap value (peptide array signal) (BAZ2B): 0.449
Array Heatmap value (peptide array signal) (BPTF (PB)): 0.341
Array Heatmap value (peptide array signal) (CHD4 (PPCC)): 0.5374
Array Heatmap value (peptide array signal) (CHD5 (PCC)): 0.766
Array Heatmap value (peptide array signal) (CHD5 (PPCC)): 0.5383
Array Heatmap value (peptide array signal) (DIDO1): 0.7661
Array Heatmap value (peptide array signal) (DPF2 (PPC2W2)): 0.6454
Array Heatmap value (peptide array signal) (ING1): 0.5322
Array Heatmap value (peptide array signal) (ING2): 0.6172
Array Heatmap value (peptide array signal) (ING3): 0.4743
Array Heatmap value (peptide array signal) (ING4): 0.4354
Array Heatmap value (peptide array signal) (ING5): 0.3443
Array Heatmap value (peptide array signal) (KDM4C (TTP)): 0.446
Array Heatmap value (peptide array signal) (KDM5A (1)): 0.4446
Array Heatmap value (peptide array signal) (KDM5A (3)): 0.4811
Array Heatmap value (peptide array signal) (KDM5B (1)): 0.6322
Array Heatmap value (peptide array signal) (KDM5B (3)): 0.4604
Array Heatmap value (peptide array signal) (KDM7A): 0.3153
Array Heatmap value (peptide array signal) (MLL5): 0.5755
Array Heatmap value (peptide array signal) (MORC3 (CW)): 0.3836
Array Heatmap value (peptide array signal) (PHF13): 0.5645
Array Heatmap value (peptide array signal) (PHF21A): 0.4302
Array Heatmap value (peptide array signal) (PHF23): 0.5495
Array Heatmap value (peptide array signal) (PHF2): 0.5404
Array Heatmap value (peptide array signal) (PHF8): 0.3604
Array Heatmap value (peptide array signal) (PHRF1 (RP)): 0.4726
Array Heatmap value (peptide array signal) (RAG2): 0.2767
Array Heatmap value (peptide array signal) (SP140L): 0.332
Array Heatmap value (peptide array signal) (TAF3): 0.2673
Array Heatmap value (peptide array signal) (TRIM66 (PB)): 0.6056
